From patent US5648379A (priority 1990, dated 1997)
In brackets after ≈: the same amount, converted by molar mass. Entries after “also recorded” stand apart in the source; their conditions may differ. Where two headings read alike, the source gives them in different places.

Key:
[1] = test system: Neuraminidase from Arthrobacter sialophilus; settings: in vitro; Kumar et al. 1981, 1982; cited from earlier work
neuraminidase = settings: cited from earlier work; for inhibition of neuraminidase: type of neuraminidase not identified
[2] = target: N2 influenza virus neuraminidase (Influenza A virus, UniProt P06820); assay: biochemical
[3] = test system: Neuraminidase in at least some strains of influenza or parainfluenza viruses; settings: in vitro; Zakstel'skaya et al. 1972; cited from earlier work
[4] = test system: H2N2 influenza A virus (A/Sing/1/57); assay type: in vivo, mice; settings: for % AUC (lung virus titre, compared to untreated mice): days 1-3; for titre of virus in lung tissue: intranasal, before and during challenge, 1 to 3 days after infection
N9 neuraminidase = N9 neuraminidase (Influenza A virus, UniProt P03472); assay: biochemical; settings: read-out: Ki, inhibition of N9 neuraminidase
[5] = test system: influenza A/Singapore/1/57 (H2N2); assay: microbe, parasite or virus in culture; assay type: cell-based; settings: H2N2, MDCK, 72 h, read-out: IC50 Plaque Reduction, Influenza A
[6] = test system: Influenza B/Victoria/102/85; assay: microbe, parasite or virus in culture; assay type: cell-based; settings: MDCK, 72 h, read-out: IC50 Plaque Reduction, Influenza B
influenza virus = assay: microbe, parasite or virus in culture; assay type: cell-based; settings: unidentified influenza virus, read-out: IC50 plaque reduction
[7] = literature; cited from earlier work
[8] = N2, 37° C., read-out: Ki, inhibition of N2 neuraminidase
[9] = Experiment 1, 25 mg/kg intranasal
[10] = Experiment 2, 12.5 mg/kg intranasal
[11] = Experiment 3, 12.5 mg/kg intranasal

Sequence of N9 neuraminidase (P03472 whole entry, looked up): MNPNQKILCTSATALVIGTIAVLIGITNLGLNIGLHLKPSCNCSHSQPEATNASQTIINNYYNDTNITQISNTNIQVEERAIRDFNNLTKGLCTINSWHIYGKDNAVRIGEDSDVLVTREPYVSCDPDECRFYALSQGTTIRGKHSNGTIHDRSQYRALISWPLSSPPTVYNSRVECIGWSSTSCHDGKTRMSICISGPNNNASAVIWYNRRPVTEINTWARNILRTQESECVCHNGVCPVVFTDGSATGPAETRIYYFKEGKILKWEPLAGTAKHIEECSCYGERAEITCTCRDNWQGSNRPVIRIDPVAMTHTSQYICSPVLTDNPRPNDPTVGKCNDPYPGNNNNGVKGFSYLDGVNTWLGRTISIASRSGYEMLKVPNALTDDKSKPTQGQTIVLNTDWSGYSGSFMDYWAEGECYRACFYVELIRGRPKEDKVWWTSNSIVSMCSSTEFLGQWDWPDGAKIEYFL
Sequence of N2 influenza virus neuraminidase (P06820 whole entry, looked up): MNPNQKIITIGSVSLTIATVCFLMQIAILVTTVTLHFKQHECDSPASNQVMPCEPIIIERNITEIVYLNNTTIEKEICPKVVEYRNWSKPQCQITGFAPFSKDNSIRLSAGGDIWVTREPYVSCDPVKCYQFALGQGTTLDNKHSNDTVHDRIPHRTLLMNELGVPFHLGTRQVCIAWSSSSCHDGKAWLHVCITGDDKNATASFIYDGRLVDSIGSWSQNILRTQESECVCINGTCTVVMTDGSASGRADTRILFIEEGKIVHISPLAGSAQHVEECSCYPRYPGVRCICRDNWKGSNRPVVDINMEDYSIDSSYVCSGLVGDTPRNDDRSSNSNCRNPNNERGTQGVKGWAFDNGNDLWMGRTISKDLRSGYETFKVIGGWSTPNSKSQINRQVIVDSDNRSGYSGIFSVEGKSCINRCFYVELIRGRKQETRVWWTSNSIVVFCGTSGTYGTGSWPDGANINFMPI

Question: Which “inhibition of Arthrobacter sialophilus neuraminidase” value [1] does the source give for CC(=O)N[C@H]1[C@H]([C@H](O)[C@H](O)CO)OC(C(=O)O)=C[C@H]1O [2,3-dehydro-4-epi-N-acetyl-neuraminic acid] here?
Answer: Its value is “inhibited in vitro”.

Question: For N[C@H]1[C@H]([C@H](O)[C@H](O)CO)SC(C(=O)O)=C[C@@H]1O [2-deoxy-2,3-didehydro-6-thioneuraminic acid], which inhibition of neuraminidase (neuraminidase) is on record?
Answer: Its inhibition of neuraminidase is “reported to inhibit neuraminidase”.

Question: Which Ki [2, 8] does the source give for CC(=O)N[C@H]1[C@H]([C@H](O)[C@H](O)CO)O[C@@H](C(=O)O)C[C@@H]1O [2-deoxy-N acetyl-α-D-neuraminic acid, 2-deoxy-N-acetyl-α-D-neuraminic acid, reference compound] here?
Answer: The Ki was 300 µM.

Question: With [N-]=[N+]=NC1(C(=O)O)C[C@H](O)[C@@H](N)[C@H]([C@H](O)[C@H](O)CO)S1 (stereo partly drawn) [2-α-azido-6-thio-neuraminic acid] as the compound, how does the inhibition of neuraminidase (neuraminidase) read?
Answer: The inhibition of neuraminidase was “reported to inhibit neuraminidase”.

Question: With O=C1CNC(=O)[C@H]([C@H](O)[C@H](O)CO)O1 [3-aza-2,3,4-trideoxy-4-oxo-D-arabinoctonic acid δ-lactone] as the compound, how does the “inhibition of influenza or parainfluenza virus neuraminidase” value [3] read?
Answer: The value was “inhibited in vitro”.

Question: For CC(=O)N[C@@H]1C(=O)C=C(C(=O)O)O[C@H]1[C@H](O)[C@H](O)CO [5-acetamido-2,6-anhydro-2,3,5-trideoxy-D-manno-non-2-en-4-ulosonate], which “inhibition of Arthrobacter sialophilus neuraminidase” value [1] is on record?
Answer: The value was “inhibited in vitro”.

Question: For NC12CC3CC(CC(C3)C1)C2 [Amantadine], which “% AUC (lung virus titre, compared to untreated mice)” value (“% AUC” for short) [4, 9] is on record?
Answer: The value was 0.08%.

Question: And the “% AUC” value [4, 10]?
Answer: Its value is 0.03%.

Question: And the “% AUC” value ([4]; Experiment 2, 25 mg/kg)?
Answer: The value was 0.2%.

Question: And the “% AUC” value [4, 11]?
Answer: The value was 8.8%.

Question: Which Ki [2, 8] does the source give for CC(=O)N[C@H]1[C@H]([C@H](O)[C@H](O)CO)OC(C(=O)O)=C[C@@H]1N=[N+]=[N-] [Compound 4, Sodium 5-Acetamido-4-azido-2,3,4,5-tetradeoxy-D-glycero-D-galacto-non-2-enopyranosonate] here?
Answer: Its Ki is 2 µM.

Question: For CC(=O)N[C@H]1[C@H]([C@H](O)[C@H](O)CO)OC(C(=O)O)=C[C@@H]1N [Compound 6, Sodium 5-Acetamido-4-amino-2,3,4,5-tetradeoxy-D-glycero-D-galacto-non-2-enopyranosonate], which Ki (N9 neuraminidase) is on record?
Answer: Its Ki is 0.19 µM.

Question: And the IC50 [5]?
Answer: The IC50 was 1.6 µM.

Question: What about the “% AUC” value [4, 9] of the same compound?
Answer: The value was 0.06%.

Question: And the “titre of virus in lung tissue” value [4]?
Answer: Its value is “reduced the titre of virus in lung tissue”.

Question: And the Ki [2, 8]?
Answer: Its Ki is 0.06 µM.

Question: What about the Ki ([2]; read-out: Ki, inhibition of N2 virus neuraminidase) of the same compound?
Answer: Its Ki is 0.01 µM.

Question: What about the IC50 [6] of the same compound?
Answer: Its IC50 is 1.6 µM.

Question: For C=CCN(CC=C)[C@H]1C=C(C(=O)O)O[C@@H]([C@H](O)[C@H](O)CO)[C@@H]1NC(C)=O [Compound 9, Sodium 5-Acetamido-4-N,N-diallylamino-2,3,4,5-tetradeoxy-D-glycero-D-galacto-non-2-enopyranosonate], which Ki [2, 8] is on record?
Answer: The Ki was 4 µM.

Question: For C=CCN[C@H]1C=C(C(=O)O)O[C@@H]([C@H](O)[C@H](O)CO)[C@@H]1NC(C)=O [Compound 11, Sodium 5-Acetamido-4-N-allylamino-2,3,4,5-tetra-deoxy-D-glycero-D-galacto-non-2-enopyranosonate], which Ki (N9 neuraminidase) is on record?
Answer: The Ki was 2.5 µM.

Question: And the Ki [2, 8]?
Answer: The Ki was 2.5 µM.

Question: For COC(=O)C1=C[C@@H](N)[C@@H](NC(C)=O)[C@H]([C@H](OC(C)=O)[C@@H](COC(C)=O)OC(C)=O)O1 [Compound 12, Methyl 5-acetamido-7,8,9-tri-O-acetyl-4-amino-2,3,4,5-tetradeoxy-D-glycero-D-talo-non-2-enopyranosonate], which Ki [2, 8] is on record?
Answer: The Ki was ~3000 µM.

Question: With COC(=O)C1=C[C@H]2OC(C)=N[C@H]2[C@H]([C@H](OC(C)=O)[C@@H](COC(C)=O)OC(C)=O)O1 [Compound 13, Methyl 7,8,9-tri-O-acetyl-2,3,5-trideoxy-4',5'-dihydro-2'-methyloxazolo [5,4-d] D-glycero-D-talo-non-2-enopyranosonate] as the compound, how does the Ki [2, 8] read?
Answer: The Ki was 30 µM.

Question: Which Ki (N9 neuraminidase) does the source give for CC(=O)N[C@H]1[C@H]([C@H](O)[C@H](O)CO)OC(C(=O)O)=C[C@H]1N [Compound 14, Sodium 5-Acetamido-4-amino-2,3,4,5-tetra deoxy-D-glycero-D-talo-non-2-enopyranosonate] here?
Answer: Its Ki is 0.1 µM.

Question: And the IC50 [5]?
Answer: The IC50 was 3 µM.

Question: What about the “% AUC” value [4, 11] of the same compound?
Answer: The value was 21.1%.

Question: And the “titre of virus in lung tissue” value [4]?
Answer: Its value is “reduced the titre of virus in lung tissue”.

Question: And the Ki [2, 8]?
Answer: The Ki was 0.1 µM.

Question: And the IC50 [6]?
Answer: The IC50 was 1.2 µM.

Question: With CC(=O)N[C@H]1[C@H]([C@H](O)[C@H](O)CO)OC(C(=O)O)=C[C@H]1N=[N+]=[N-] [Compound 17, Sodium 5-acetamido-4-azido-2,3,4,5-tetradeoxy-D-glycero-D-talo-non-2-enopyranosonate] as the compound, how does the Ki [2, 8] read?
Answer: Its Ki is 28 µM.

Question: With CN[C@H]1C=C(C(=O)O)O[C@@H]([C@H](O)[C@H](O)CO)[C@@H]1NC(C)=O [Compound 20, Sodium 5-acetamido-4-N-methylamino-2,3,4.5-tetradeoxy-D-glycero-D-galacto-non-2-enopyranosonate] as the compound, how does the Ki [2, 8] read?
Answer: The Ki was 1.15 µM.

Question: With CC(=O)N[C@H]1[C@H]([C@H](O)[C@H](O)CO)OC(C(=O)O)=C[C@@H]1N(C)C [Compound 23, Sodium 5-acetamido-4-N,N-dimethylamino-2,3,4,5-tetradeoxy-D-glycero-D-galacto-non-2-enopyranosonate] as the compound, how does the Ki [2, 8] read?
Answer: The Ki was 0.7 µM.

Question: For COC(=O)CN[C@H]1C=C(C(=O)OC)O[C@@H]([C@H](O)[C@H](O)CO)[C@@H]1NC(C)=O [Compound 25, Methyl 5-acetamido-4-N-methoxycarbonylmethylamino-2,3,4,5-tetradeoxy-D-glycero-D-galacto-non-2-enopyranosonate], which Ki [2, 8] is on record?
Answer: Its Ki is 7 µM.

Question: Which Ki (N9 neuraminidase) does the source give for CC(=O)N[C@H]1[C@H]([C@H](O)[C@H](O)CO)OC(C(=O)O)=C[C@@H]1NCCO [Compound 29, Sodium 5-acetamido-4-N-2'-hydroxyethylamino-2,3,4,5-tetradeoxy-D-glycero-D-galacto-non-2-enopyranosonate] here?
Answer: Its Ki is 1.6 µM.

Question: What about the IC50 [5] of the same compound?
Answer: The IC50 was 60 µM.

Question: And the Ki [2, 8]?
Answer: The Ki was 1.6 µM.

Question: And the IC50 [6]?
Answer: The IC50 was 7 µM.

Question: With O=C(O)C1=C[C@H](O)[C@@H](O)[C@H]([C@H](O)[C@H](O)CO)O1 [Compound 35, Sodium 2,-3-dideoxy-D-glycero-D-galacto-non-2-enopyranosonate] as the compound, how does the Ki [2, 8] read?
Answer: Its Ki is 480 µM.

Question: With N[C@H]1[C@H]([C@H](O)[C@H](O)CO)OC(C(=O)O)=C[C@@H]1N [Compound 38, Sodium 4,5-Diamino-2,3,4,5-tetradeoxy-D-glycero-D-galacto-non-2-enopyranosonate] as the compound, how does the IC50 [5] read?
Answer: Its IC50 is 11 µM.

Question: And the Ki [2, 8]?
Answer: The Ki was 0.65 µM.

Question: What about the IC50 [6] of the same compound?
Answer: Its IC50 is 6.8 µM.

Question: For COC(=O)C1=C[C@H](O)[C@@H](NC(C)=O)[C@H]([C@H](O)[C@H](O)CNC(C)=O)O1 [Compound 41, Methyl 5,9-diacetamido-2,3,5,9-tetradeoxy-D-glycero-D-galacto-non-2-enopyranosonate], which Ki [2, 8] is on record?
Answer: The Ki was 36 µM.

Question: With CC(=O)NC[C@@H](O)[C@@H](O)[C@@H]1OC(C(=O)O)=C[C@H](O)[C@H]1NC(C)=O [Compound 42, 5,9-diacetamido-2,3,5,9-tetradeoxy-D-glycero-D-galacto-non-2-enopyranosonicacid] as the compound, how does the Ki [2, 8] read?
Answer: The Ki was 14.5 µM.

Question: For COC(=O)C1=C[C@H](O)[C@@H](NC(C)=O)[C@H]([C@H](O)[C@H](O)CC#N)O1 [Compound 43, Methyl 5-acetamido-9-cyano-2,3,5,9-tetradeoxy-D-glycero-D-galacto-non-2-enopyranosonate], which Ki [2, 8] is on record?
Answer: The Ki was ~3000 µM.

Question: For CC(=O)N[C@H]1[C@H]([C@H](O)[C@H](O)CC#N)OC(C(=O)O)=C[C@@H]1O [Compound 44, 5-Acetamido-9-cyano-2,3,5,9-tetradeoxy-D-glycero-D-galacto-non-2-enopyranosonic acid], which Ki [2, 8] is on record?
Answer: The Ki was 3 µM.

Question: Which results are given for C=CCN(O)[C@H]1C=C(C(=O)O)O[C@@H]([C@H](O)[C@H](O)CO)[C@@H]1NC(C)=O [Compound 45, Sodium 5-acetamido-4-N-allyl-N-hydroxy-2,3,4,5-tetradeoxy-D-glycero-D-galacto-non-2-enopyranosonate]?
Answer: IC50 [5]: 4.7 µM; IC50 [6]: 2.7 µM

Question: Which IC50 (influenza virus) does the source give for CC(=O)N[C@H]1[C@H]([C@H](O)[C@H](O)CO)OC(C(=O)O)=C[C@@H]1O [DANA, 2-deoxy-2,3-didehydro-N-acetylneuraminic acid] here?
Answer: The IC50 was 5 µg/mL (≈ 17.2 µM).

Question: What about the “% AUC” value [4, 9] of the same compound?
Answer: Its value is 0.18%.

Question: What about the “% AUC” value [4, 10] of the same compound?
Answer: The value was 2.0%.

Question: And the “% AUC” value [4, 11]?
Answer: The value was 48.0%.

Question: And the “titre of virus in lung tissue” value [4]?
Answer: Its value is “reduced the titre of virus in lung tissue”.

Question: What about the “inhibition of Arthrobacter sialophilus neuraminidase” value [1] of the same compound?
Answer: The value was “inhibited in vitro”.

Question: With O=C(O)C1=C[C@H](O)[C@@H](NC(=O)C(F)(F)F)[C@H]([C@H](O)[C@H](O)CO)O1 [FANA, 2-deoxy-2,3-dehydro-N-trifluoroacetyl-neuraminic acid] as the compound, how does the “activity among neuraminidase inhibitors of the DANA type” value (neuraminidase; literature) read?
Answer: The value was “most active”.

Question: And the “anti-viral activity in vivo” value [7]?
Answer: Its value is “not to possess in vivo anti-viral activity; also recorded: inactive in vivo”.

Question: Which inhibition of neuraminidase (neuraminidase) does the source give for CC(=O)N[C@H]1[C@H]([C@H](O)[C@H](O)CO)OC(F)(C(=O)O)C(F)[C@@H]1O (stereo partly drawn) [N-acetyl-2,3-difluoro-α-D-neuraminic acid] here?
Answer: Its inhibition of neuraminidase is “reported to inhibit neuraminidase”.

Question: Which “inhibition of influenza or parainfluenza virus neuraminidase” value [3] does the source give for CC(=O)NC1C(O)CC(OC2C(O)C(CO)OC(O)C2NC(C)=O)(C(=O)O)OC1C(O)C(O)CO [O-α-N-acetyl-D-neuraminosyl-)2→3)-2-acetamido-2-deoxy-D-glucose] here?
Answer: The value was “inhibited in vitro”.

Question: With NC(=O)c1ncn([C@@H]2O[C@H](CO)[C@@H](O)[C@H]2O)n1 [Ribavirin] as the compound, how does the “% AUC” value ([4]; Experiment 2, 25 mg/kg) read?
Answer: The value was 29.8%.
